The values below are quoted from earlier work in patent publication US5198463A, “Oxytocin antagonists” (Merck & Co., Inc., priority 1992, dated 1993).

The subject of this series is Chinese cabbage seedlings. Particulars: reported by T. Sassa et al.

In the case of `COc1c(C(O)CC(C)C)ccc2c1C(=O)OCc1cc(C)cc(O)c1O2` (stereo not shown) [Compound IA, penicillide], the “growth of Chinese cabbage seedlings” value is listed as “markedly inhibits the growth”.
